Laboratory results from patent publication US7285528B2, “Agonists and antagonists of gonadotropin-releasing hormone-2, and use thereof” (priority 2002, dated 2007).
Where a SMILES comes first, the peptide text is derived from it. [ ]: non-standard residue; d: D form. pGlu = O=C1CC[C@@H](C(=O)O)N1

What was measured:
bfGnRHR-1 = assay: Inositol phosphate (IP) production, GH3 cells expressing bfGnRHR-1; type: cell-based, bullfrog; details: for Log EC50: log of EC50 (negative values), concentration inducing half-maximal stimulation, 30 min
Description: (§1) The GnRH receptor, a membrane protein connected with the G protein, activates the G protein when activated by a ligand, and the activated G protein activates phospholipase C and thereby the synthesis of inositol phosphate (IP), which is the second transmitter in cells, is increased. Based on this principle, the activity of a receptor can be investigated by measuring the amount of IP within cells. GH3 cell lines were obtained from the Cell Line Bank at the Cancer Research Center, Seoul National University College of Medicine, located in Seoul, Republic of Korea. The GH3 cell lines were infected with retroviruses comprising genes encoding […]-2, and bfGnRHR-3 which are bullfrog GnRH receptors, and rat GnRHR, and cell lines expressing each of these receptors were obtained. The GH3 cells expressing […]-3, and rat GnRHR were cultured on 12-well plates. After 24 hours, the cells were cultured again for 24 hours in a media containing no inositol, to which H^3-myoinositol was added. […] Thereafter, they were treated with GnRH having a suitable concentration, cultured at 37° C. for another 30 minutes, and then the media was eliminated. The cells were treated with 10 mM of ice-cold formic acid to terminate the reaction, and the cell extracts were mixed with Dowex anionic exchange resins. These resins were washed with distilled water, IP was extracted with 1 M ammonium formate/0.1 M formic acid, and cpm (count per minute) was determined. The GH3 cell lines were infected with retroviruses comprising genes encoding […]-2, and bfGnRHR-3 which are bullfrog GnRH receptors, and rat GnRHR, and cell lines expressing each of these receptors were obtained. […] In all the cell lines it was observed that when they were treated with GnRH and the agonists, IP was formed in a concentration-dependent manner.

bfGnRHR-2 = assay: Inositol phosphate (IP) production, GH3 cells expressing bfGnRHR-2; type: cell-based, bullfrog; details: log of EC50 (negative values), concentration inducing half-maximal stimulation, 30 min
Description: as §1

bfGnRHR-3 [1] = assay: Inositol phosphate (IP) production, GH3 cells expressing bfGnRHR-3; type: cell-based, bullfrog; details: log of EC50 (negative values), concentration inducing half-maximal stimulation, 30 min
Description: as §1

Primate GnRH-2 receptor = assay: c-fos-luc luciferase activation by agonists, CV-1 cells expressing Primate GnRH-2 receptor; type: cell-based, Primates; details: luciferase activation; for Log EC50: log of EC50 (negative values); for Log EC50 / Emax (fold-induction): average of three independent experiments; for Ratio of EC50 values based on EC50 value of GnRH-2: GnRH-2 = 1
Protocol: Complimentary DNA (cDNA) for a Primate GnRH-2 receptor was obtained from a CV-1 cell genome. […] Plasmids having Primate GnRH-2 receptors where transfected into CV-1 cells. To assay the activity of the receptor, c-fos-luc where a luciferase gene is fused with a c-fos promoter was co-transfected as a probe gene. After 48 hours from transfection, the cells were treated with GnRH-2 agonists and then the activity of luciferase was assayed (Seong et al., Endocrinology vol 144 2003, 454-466). […] Of the GnRH-2 receptors, [[…]]GnRH-2 performed excellently, showing effects about 3 times that of a wild-type ligand, GnRH-2. […] When analogs where the 5th, 7th, and 8th amino acids of [[…]]GnRH-2 are substituted were used, it was observed that their effects were weaker than [[…]]GnRH-2, and therefore it can be seen that it is important to maintain His, Trp, and Tyr that are found at the 5th, 7th, and 8th positions of GnRH-2 as they are (FIG. 3b). Log EC50 values and Emax values of GnRH-2 agonists are average values of experiments that were conducted independently three times. Ratio^a represents the ratio of EC50 values of other GnRH analogs based on EC50 values of GnRH-2.

bfGnRHR-3 [2] = assay: Ligand-receptor binding assay, I125-GnRH-2 competition, membranes of GH3 cells expressing bfGnRHR-3; parameters: species or system bullfrog; details: log of IC50 (negative values); competition with I125-GnRH-2, 4° C., 16 hours
Protocol: To determine the binding affinity between GnRH and GnRH receptors, GnRH-2 was radiolabeled with I^125. The GH3 cells expressing bfGnRHR-1, bfGnRHR-2, bfGnRHR-3, and rat GnRHR constructed in Example 2-3 above were cultured on 100-mm dishes. After 48 hours, the cells were homogenized to obtain cellular membranes, which were then dissolved in binding buffer (40 mM Tris, pH 7.4, 2 mM MgCl2). 20 μg of membrane proteins were reacted with I^125-GnRH-2 at 4° C. for 16 hours. […] After the reaction was completed, 1^125-GnRH-2 bound to the receptors was filtered using a Brandel harvester, and cpm was measured using a γ-counter.
The GH3 cells expressing bfGnRHR-3 obtained from Example 6-1 above were treated with l^125GnRH-2 and GnRH-2 agonists and antagonists at various concentrations to determine the binding affinity of GnRH-2 agonists and antagonists toward the receptors.

rat GnRHR = target: T1, rat GnRHR (Rattus norvegicus, UniProt P30969); assay: Inositol phosphate (IP) production, GH3 cells expressing rat GnRHR; type: cell-based; details: for sensitivity compared with GnRH-1: rat GnRHR
T1 construct: expressed in transfected cells; host or cells: GH3 cells, retrovirus-mediated infection
T1 sequence (P30969 1-327): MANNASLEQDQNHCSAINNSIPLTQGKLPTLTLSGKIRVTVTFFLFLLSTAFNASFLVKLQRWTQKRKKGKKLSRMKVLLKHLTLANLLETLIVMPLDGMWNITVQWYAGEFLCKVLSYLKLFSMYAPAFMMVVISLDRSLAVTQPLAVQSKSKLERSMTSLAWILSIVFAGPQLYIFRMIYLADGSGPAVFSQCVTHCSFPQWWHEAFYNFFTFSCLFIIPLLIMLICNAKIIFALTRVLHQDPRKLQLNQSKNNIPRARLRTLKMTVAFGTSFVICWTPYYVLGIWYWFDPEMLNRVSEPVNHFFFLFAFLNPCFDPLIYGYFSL
Description: The GnRH receptor, a membrane protein connected with the G protein, activates the G protein when activated by a ligand, and the activated G protein activates phospholipase C and thereby the synthesis of inositol phosphate (IP), which is the second transmitter in cells, is increased. Based on this principle, the activity of a receptor can be investigated by measuring the amount of IP within cells. GH3 cell lines were obtained from the Cell Line Bank at the Cancer Research Center, Seoul National University College of Medicine, located in Seoul, Republic of Korea. The GH3 cell lines were infected with retroviruses comprising genes encoding […]-2, and bfGnRHR-3 which are bullfrog GnRH receptors, and rat GnRHR, and cell lines expressing each of these receptors were obtained. The GH3 cells expressing […]-3, and rat GnRHR were cultured on 12-well plates. After 24 hours, the cells were cultured again for 24 hours in a media containing no inositol, to which H^3-myoinositol was added. […] Thereafter, they were treated with GnRH having a suitable concentration, cultured at 37° C. for another 30 minutes, and then the media was eliminated. The cells were treated with 10 mM of ice-cold formic acid to terminate the reaction, and the cell extracts were mixed with Dowex anionic exchange resins. These resins were washed with distilled water, IP was extracted with 1 M ammonium formate/0.1 M formic acid, and cpm (count per minute) was determined. The GH3 cell lines were infected with retroviruses comprising genes encoding […]-2, and bfGnRHR-3 which are bullfrog GnRH receptors, and rat GnRHR, and cell lines expressing each of these receptors were obtained.

[3] = tested on: luteinizing hormone and testosterone secretion; assay: GnRH-2 agonist-induced serum LH and testosterone levels in male rat (radioimmunoassay); type: in vivo; details: 10 μg injected
Protocol: Example 3: GnRH-2 Agonist-induced serum LH and testosterone levels [D-Ala^6]GnRH-2 was dissolved in saline at a concentration of 100 μg/ml, and then 10 μg of [D-Ala^6]GnRH-2 was injected into the cervix of a male rat (Sprague Dawley rat having a weight of approximately 100 g). 1, 2, 4, and 8 hours after the injection, serum was obtained from the rat. The concentration of luteinizing hormone and testosterone present in the serum was measured by radioimmunoassay.

TSU-Pri cells = assay: Binding of radiolabeled GnRH to TSU-Pri prostate cancer cells and competition; parameters: species or system human; details: for reduction of radiolabeled GnRH-2 binding to TSU-Pri cells by unradiolabeled competitor: unradiolabeled peptide as competitor
Protocol: The radiolabeled GnRH and the cells were cultured at room temperature for 6 hours, and then washed with PBS (phosphate-buffered saline) several times to eliminate the unbound GnRH. Thereafter, the cells were isolated and radioactivity from the cells was measured using a γ-counter.

[4] = cells expressing rat GnRH receptor

| Log EC50 (bfGnRHR-1) | Log EC50 (bfGnRHR-2) | Log EC50 (bfGnRHR-3 [1]) | Log EC50 (Primate GnRH-2 receptor) | Ratio of EC50 values based on EC50 value of GnRH-2 (Primate GnRH-2 receptor) | Binding affinity (log IC50 value) (bfGnRHR-3 [2]) | fold higher sensitivity than GnRH-2 (rat GnRHR; [4]) [fold] | fold lower sensitivity than GnRH-1 (rat GnRHR; [4]) [fold] | sensitivity compared with GnRH-1 (rat GnRHR) | Compound | fold lower effect than GnRH-2 (Primate GnRH-2 receptor) [fold] | Emax (fold-induction) (Primate GnRH-2 receptor) | fold lower activating concentration than GnRH-2 (bfGnRHR-1) [fold] | serum luteinizing hormone (LH) ([3]; male Sprague Dawley rat about 100 g, serum 1, 2, 4, 8 hours) | time of serum testosterone peak after injection ([3]; male rat) [h] | serum testosterone ([3]; male rat, compared with before the injection) | reduction of radiolabeled GnRH-2 binding to TSU-Pri cells by unradiolabeled competitor (TSU-Pri cells) | binding of radiolabeled ligand to TSU-Pri cells (TSU-Pri cells; I125-radiolabeled peptide, room temperature, 6 hours) |
| --- | --- | --- | --- | --- | --- | --- | --- | --- | --- | --- | --- | --- | --- | --- | --- | --- | --- |
| −9.40 ± 0.12 | −9.21 ± 0.13 | −9.22 ± 0.11 | −8.31 ± 0.09 | 1.20 | −8.10 ± 0.11 |  |  |  | NC(=O)CNC(=O)[C@@H]1CCCN1C(=O)[C@H](Cc1ccc(O)cc1)NC(=O)[C@H](Cc1c[nH]c2ccccc12)NC(=O)[C@@H](Cc1c[nH]c2ccccc12)NC(=O)[C@H](Cc1c[nH]cn1)NC(=O)[C@H](CO)NC(=O)[C@H](Cc1c[nH]c2ccccc12)NC(=O)[C@H](Cc1c[nH]cn1)NC(=O)[C@@H]1CCC(=O)N1 [[D-Trp^6]GnRH-2] ([pGlu]HWSH[dW]WYPG-NH2) | ~1.2 | 11.20 ± 0.32 |  |  |  |  |  |  |
| −9.91 ± 0.13 | −9.91 ± 0.19 | −9.89 ± 0.10 | −8.81 ± 0.12 | 0.38 | −9.83 ± 0.14 | 5 | 3.5 | a sensitivity lower than 10-fold | C[C@@H](NC(=O)[C@H](Cc1c[nH]cn1)NC(=O)[C@H](CO)NC(=O)[C@H](Cc1c[nH]c2ccccc12)NC(=O)[C@H](Cc1c[nH]cn1)NC(=O)[C@@H]1CCC(=O)N1)C(=O)N[C@@H](Cc1c[nH]c2ccccc12)C(=O)N[C@@H](Cc1ccc(O)cc1)C(=O)N1CCC[C@H]1C(=O)NCC(N)=O [[D-Ala^6]GnRH-2, p-Glu-His-Trp-Ser-His-D-Ala-Trp-Tyr-Pro-GlyNH2] ([pGlu]HWSH[dA]WYPG-NH2) |  | 11.84 ± 0.47 | ~8 | an increase of luteinizing hormone (LH) was observed in only one hour | 4 | significantly high value even after 8 hours | reduced in a concentration-dependent manner |  |
| −9.41 ± 0.13 | −8.98 ± 0.14 | −9.51 ± 0.10 | −8.39 ± 0.10 | 1 | −8.63 ± 0.14 |  |  | a sensitivity lower than 10-fold | NC(=O)CNC(=O)[C@@H]1CCCN1C(=O)[C@H](Cc1ccc(O)cc1)NC(=O)[C@H](Cc1c[nH]c2ccccc12)NC(=O)CNC(=O)[C@H](Cc1c[nH]cn1)NC(=O)[C@H](CO)NC(=O)[C@H](Cc1c[nH]c2ccccc12)NC(=O)[C@H](Cc1c[nH]cn1)NC(=O)[C@@H]1CCC(=O)N1 [GnRH-2] ([pGlu]HWSHGWYPG-NH2) |  | 11.74 ± 0.31 |  |  |  |  | the binding was reduced | binding with cells was observed |
